The values that follow come from PMC6097184 (Clinical cancer research : an official journal of the …, 2017).

One series addresses T1, human OAT3 (Homo sapiens, UniProt Q8TCC7).
T1 sequence (Q8TCC7 1-542): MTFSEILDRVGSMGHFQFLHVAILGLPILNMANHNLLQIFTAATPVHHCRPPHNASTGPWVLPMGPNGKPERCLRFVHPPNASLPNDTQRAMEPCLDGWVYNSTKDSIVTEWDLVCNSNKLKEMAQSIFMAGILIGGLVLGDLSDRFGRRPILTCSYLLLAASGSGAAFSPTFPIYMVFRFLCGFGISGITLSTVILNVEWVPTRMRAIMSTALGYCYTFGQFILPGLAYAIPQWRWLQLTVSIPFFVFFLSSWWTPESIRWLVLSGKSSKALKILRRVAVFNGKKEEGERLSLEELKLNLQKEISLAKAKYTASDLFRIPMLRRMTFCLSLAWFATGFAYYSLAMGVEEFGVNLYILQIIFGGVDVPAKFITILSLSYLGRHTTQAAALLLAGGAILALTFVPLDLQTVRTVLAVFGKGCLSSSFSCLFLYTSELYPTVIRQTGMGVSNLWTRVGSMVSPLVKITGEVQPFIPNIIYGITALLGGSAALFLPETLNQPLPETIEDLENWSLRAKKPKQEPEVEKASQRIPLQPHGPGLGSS
Description: cellular uptake in HEK293 cells overexpressing OAT3.

The target in the next series is T2, human OATP2B1 (Homo sapiens, UniProt O94956).
T2 sequence (O94956 1-709): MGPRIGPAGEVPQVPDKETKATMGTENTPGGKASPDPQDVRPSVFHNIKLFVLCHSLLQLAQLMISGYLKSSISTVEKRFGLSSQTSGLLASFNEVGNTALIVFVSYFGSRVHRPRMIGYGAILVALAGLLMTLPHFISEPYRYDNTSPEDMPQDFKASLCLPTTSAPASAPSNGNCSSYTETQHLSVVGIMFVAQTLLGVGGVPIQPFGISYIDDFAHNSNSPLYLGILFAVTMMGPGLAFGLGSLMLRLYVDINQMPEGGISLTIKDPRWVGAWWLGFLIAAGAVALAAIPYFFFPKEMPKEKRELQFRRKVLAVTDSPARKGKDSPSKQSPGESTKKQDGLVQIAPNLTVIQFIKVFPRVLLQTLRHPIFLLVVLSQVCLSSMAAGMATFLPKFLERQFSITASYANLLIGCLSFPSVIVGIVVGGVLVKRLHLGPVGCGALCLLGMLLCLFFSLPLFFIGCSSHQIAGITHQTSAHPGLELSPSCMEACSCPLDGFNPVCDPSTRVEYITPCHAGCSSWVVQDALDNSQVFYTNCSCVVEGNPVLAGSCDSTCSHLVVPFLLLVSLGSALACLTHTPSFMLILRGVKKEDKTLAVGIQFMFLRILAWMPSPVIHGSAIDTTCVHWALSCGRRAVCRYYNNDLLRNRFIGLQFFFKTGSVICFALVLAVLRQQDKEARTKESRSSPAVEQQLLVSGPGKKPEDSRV
The series can be described thus: cellular uptake in HEK293 cells overexpressing OATP2B1. Conditions: 10 μmol/L fluvastatin A.

The format of series [1] is in vivo. Conditions: human, po, 400 mg, range, 20 patients with glioblastoma, single oral dose 100, 200 or 400 mg.
Series [2] can be described thus: fraction unbound in plasma. Conditions: human, patient plasma, fu,p, mean ± SD, plasma of 20 patients with glioblastoma. The series is classed as in vitro ADME.
Series [3] is described as follows: physicochemical parameters from literature. Conditions: high permeability and low solubility.
The target in the next series is Wee1 tyrosine kinase. Conditions: ref https://ncats.nih.gov/files/AZD1775.pdf; cited from earlier work.
The test system of series [4] is DNA damage and G2-checkpoint escape. Conditions: ref https://ncats.nih.gov/files/AZD1775.pdf; cited from earlier work.

Regarding `C[C@]12CC[C@@H]3c4ccc(OS(=O)(=O)O)cc4CC[C@H]3[C@@H]1CCC2=O` [estrone-3-sulfate], the “cellular uptake in OAT3 cells in presence of inhibitor” value at human OAT3 (50 μmol/L probenecid) is recorded as “reduced estrone-3-sulfate uptake to a level similar to that in the vector control”. For the same compound, the “cellular uptake in HEK293 cells overexpressing OAT3 compared with vector control” value on human OAT3 (no inhibitor) is given as “significantly higher”. Further, at human OATP2B1, the “cellular uptake in OATP2B1 cells in presence of inhibitor” value is recorded as “reduced estrone-3-sulfate uptake to a level similar to that in the vector control”.
By Kp is commonly meant the ratio of the level in a tissue or fluid to that in plasma or blood. Broadly, the fraction unbound is the share of the substance not bound to proteins or other matrix. A higher fraction unbound goes with much free substance. `C=CCn1c(=O)c2cnc(Nc3ccc(N4CCN(C)CC4)cc3)nc2n1-c1cccc(C(C)(C)O)n1` [AZD1775]: in series [1] (tumor / plasma (total), total tumor-to-plasma concentration ratio (Kp)), the Kp is 3.8 to 40.4. In addition, in series [1] (tumor / plasma (unbound), unbound tumor-to-plasma concentration ratio (Kp,uu)), the Kp uu was in the range of 1.3 to 24.4. The same compound yielded a fraction unbound in series [2] of 0.182 ± 0.024. Further, the “Biopharmaceutics Classification System (BCS) class” value in series [3] is “class II”. For the same compound, the “enzyme IC50 for inhibiting Wee1 activity” value on Wee1 tyrosine kinase was 0.0026 µg/mL. The “IC50 for inducing DNA damage and G2-checkpoint escape in cell-based assays” value in series [4] is roughly 0.04 µg/mL.
